# Measured values: patent US9506032B2, “Engineered biological pacemakers” (The United States of America, as represented by the …, priority 2009, dated 2016)
# Assays:
# Format in all cases: cell-based, Mouse
# [1] = test system: spontaneously beating ESCs; experiment: Spontaneous action potentials and Ca2+ signals in intact spontaneously beating ESCs (patch clamp with confocal imaging); details: for LCRs (effect of intervention) / spontaneous AP firing and Ca2+ transients: intact spontaneously beating ESCs (FIG. 6)
# From the text: (§1) Mouse ES cells of line R1 were differentiated into cardiac cells using the “hanging drop” technique. ESCs were isolated from in vitro-grown embryoid bodies by microdissection followed by collagenase treatment. […] At day 2, EBs were transferred into bacteriological petri dishes and cultured in suspension until day 5. […] Individual spontaneously beating ESCs were isolated by microdissection and collagenase treatment.
# ESCs differentiated in vitro for 9 to 20 days after plating of 7 days old embryoid bodies were studied during continuous superfusion with solution containing in mmol/L: 140 NaCl, 5.4 KCl, 5 HEPES, 2 MgCl2, 1.8 CaCl2, 10 glucose, (pH adjusted to 7.4 with NaOH). Selection of the cells for patch-clamp technique was based on spontaneous beating. Action potentials were measured at physiological temperature (35±2° C.) with standard current-clamp technique (Axopatch 200, Axon Instruments, Foster City, Calif., USA), pCLAMP7 software was used for data acquisition and analysis (Axon Instruments). Perforated patch-clamp technique was performed with β-escin added to the electrode solution. Patch pipette solution contained in mmol/L: 120 K-gluconate, 5 NaCl, 5 Mg-ATP, 5 HEPES, 20 KCl, 3 Na2ATP (pH adjusted to 7.2 with NaOH). […] Patch pipette filling solution contained (in mmol/L) 120 CsCl, 10 NaCl, 20 tetraethylammonium chloride, 5 MgATP, and 20 HEPES (pH 7.2 adjusted with CsOH), and 100 μmol/L fluo-4 pentapotassium salt (Molecular Probes). Four conditioning pulses of 100 ms and 0 mV were delivered at 1.0 Hz prior to each test voltage pulse to load the SR with Ca^2+.
# In whole cell configuration, fluo-4 was added directly to the pipette solution.
# (§2) Fluo-4 measurements are presented in terms of F/F0 (normalized Ca^2+ signal). […] were analyzed by programs developed using Delfi-7 software. The duration and width of LCRs were measured as the time at half-maximal amplitude of the normalized signal.
# [2] = test system: saponin-skinned ESCs; experiment: Local Ca2+ releases (LCRs) in saponin-skinned ESCs, confocal line-scan Ca2+ imaging; details: for LCRs (effect of drug): skinned ESCs, 150 nmol/L free [Ca2+]
# From the text: as §1, §2
# [3] = test system: Na+/Ca2+ exchanger (NCX) current in ESCs; experiment: Inward NCX current spikes in ESCs voltage-clamped at -50 mV; details: voltage clamp −50 mV, Na+ substituted by Li+ inhibiting NCX; 10 to 20 pA in control
# Experimental: ESCs differentiated in vitro for 9 to 20 days after plating of 7 days old embryoid bodies were studied during continuous superfusion with solution containing in mmol/L: 140 NaCl, 5.4 KCl, 5 HEPES, 2 MgCl2, 1.8 CaCl2, 10 glucose, (pH adjusted to 7.4 with NaOH). Selection of the cells for patch-clamp technique was based on spontaneous beating. Action potentials were measured at physiological temperature (35±2° C.) with standard current-clamp technique (Axopatch 200, Axon Instruments, Foster City, Calif., USA), pCLAMP7 software was used for data acquisition and analysis (Axon Instruments). Perforated patch-clamp technique was performed with β-escin added to the electrode solution. Patch pipette solution contained in mmol/L: 120 K-gluconate, 5 NaCl, 5 Mg-ATP, 5 HEPES, 20 KCl, 3 Na2ATP (pH adjusted to 7.2 with NaOH). Recording of L-type Ca^2+ current (ICaL) simultaneously with Ca^2+ signal imaging (see Example 3) were performed under whole cell voltage clamp. […]
# When activation of ion channels and APs are disabled by voltage clamp at −50 mV, spontaneous LCRS for at least 5 s were observed (FIG. 4, Panel A). […] It was determined under the voltage clamp whether LCRs can cause the current spikes via NCX activation. […]
molecule,measurement,setting,value
ryanodine,LCRs (effect of intervention),[1],inhibited
same,spontaneous AP firing and Ca2+ transients,[1],"became irregular, culminating in cessation of automaticity or in extremely rare and irregular beating"
same,LCRs (effect of drug),[2]; 10 μmol/L drug,inhibited
Nc1ncnc2c1nc(Sc1ccc(Cl)cc1)n2[C@@H]1O[C@@H]2COP(=O)(O)O[C@H]2[C@H]1O [CPT-cAMP],cycle length (CL) variability index (100%×CL standard deviation/CL mean),"[1]; cells with irregular beating, after 300 μmol/L CPT-cAMP, before 23.98+/−4.82%, P<0.05",11.23+/−2.68%
same,rhythmicity of beating,"[1]; irregularly beating ESCs, 300 μmol/L CPT-cAMP",converted irregularly beating ESCs to rhythmic pacemakers
CCCCNc1ccc(C(=O)OCCN(C)C)cc1 [tetracaine],LCRs (effect of drug),[2]; 1 mmol/L drug,inhibited
CC(=O)OCOC(=O)CN(CC(=O)OCOC(C)=O)c1ccccc1OCCOc1ccccc1N(CC(=O)OCOC(C)=O)CC(=O)OCOC(C)=O [BAPTA-AM],LCRs (effect of intervention),[1],inhibited
same,spontaneous AP firing and Ca2+ transients,[1],"became irregular, culminating in cessation of automaticity or in extremely rare and irregular beating"
C/C=C(/C)C(=O)O[C@H]1C(C)=C2[C@H]([C@@H]1OC(=O)CCCCCCC)[C@@](C)(OC(C)=O)C[C@H](OC(=O)CCC)[C@@]1(O)[C@H]2OC(=O)[C@@]1(C)O [thapsigargin],LCRs (effect of intervention),[1],inhibited
same,spontaneous AP firing and Ca2+ transients,[1],"became irregular, culminating in cessation of automaticity or in extremely rare and irregular beating"
same,LCRs (effect of drug),[2]; 10 μmol/L drug,inhibited
"Nc1ncnc2c1ncn2[C@@H]1O[C@@H]2COP(=O)(O)O[C@H]2[C@H]1O [cAMP, cyclic AMP]",local Ca2+ oscillators,"[2]; saponin-skinned ESCs, stimulation with 20 μmol/L cAMP",emergence of new local Ca^2+ oscillators in many cell locations
[Li+] [Li^+],high-amplitude inward current spikes,[3],disappeared
same,spontaneous excitation (APs),"[1]; Na+-free lithium solution applied ~1 s, zero-current clamp, rhythmic LCRs continued",excitation failure
O=S(=O)(NCCNC/C=C/c1ccc(Br)cc1)c1cccc2cnccc12 [H89],APs / automaticity on PKA inhibition,"[1]; spontaneously beating ESCs, 10 μmol/L",irregUlar APs or cessation of automaticity
